The results in this text go back to patent publication US20260356819A1, “OXOISOINDOLINYL-SUBSTITUTED […] DERIVATIVE AND USE THEREOF” (GLUETACS THERAPEUTICS (SHANGHAI) CO., LTD., priority 2023, published 2026).

What all share (type): cell-based
What all share (conditions): compounds at 50 nM and 500 nM

The target in one experiment is T1, WEE1 (Homo sapiens, UniProt P30291+Q96SW2).
T1 construct: The supernatant was aspirated as the extracted total cell protein; endogenous in cells; host or cells: human peripheral blood mononuclear cells (hPBMCs)
Briefly: Western blot degradation of WEE1 in hPBMCs (24 h). The method, boiled down: (§1)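 Compounds were tested at 50 nM and 500 nM on hPBMCs (1×10^6 cells/mL) for 24 h, alongside DMSO. Proteins were detected by Western blot after denaturation at 95 °C; remaining protein computed from normalised band grayscale.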
Background: A western blot detects proteins with antibodies after separation by electrophoresis.

The target in the next experiment is T2, IKZF1 (Homo sapiens, UniProt Q13422+Q96SW2).
T2 construct: The supernatant was aspirated as the extracted total cell protein; endogenous in cells; host or cells: human peripheral blood mononuclear cells (hPBMCs)
Briefly: Western blot degradation of IKZF1 in hPBMCs (24 h). The method, boiled down: as §1

The target in another experiment is T3, IKZF2 (Homo sapiens, UniProt Q96SW2+Q9UKS7).
T3 construct: The supernatant was aspirated as the extracted total cell protein; endogenous in cells; host or cells: human peripheral blood mononuclear cells (hPBMCs)
Put plainly: Western blot degradation of IKZF2 in hPBMCs (24 h). Put shortly:
as §1

For a further experiment, the target named is T4, IKZF3 (Homo sapiens, UniProt Q96SW2+Q9UKT9).
T4 construct: The supernatant was aspirated as the extracted total cell protein; endogenous in cells; host or cells: human peripheral blood mononuclear cells (hPBMCs)
Briefly: Western blot degradation of IKZF3 in hPBMCs (24 h). The method, boiled down: as §1

In a further experiment the target is T5, CK1α (Homo sapiens, UniProt P48729+Q96SW2).
T5 construct: The supernatant was aspirated as the extracted total cell protein; endogenous in cells; host or cells: human peripheral blood mononuclear cells (hPBMCs)
Briefly: Western blot degradation of CK1α in hPBMCs (24 h). The method, boiled down: as §1

For the next experiment, the target named is T6, GSPT1 (Homo sapiens, UniProt P15170+Q96SW2).
T6 construct: The supernatant was aspirated as the extracted total cell protein; endogenous in cells; host or cells: human peripheral blood mononuclear cells (hPBMCs)
Put plainly: Western blot degradation of GSPT1 in hPBMCs (24 h). The method, boiled down: as §1

T2 sequence (Q13422 whole entry): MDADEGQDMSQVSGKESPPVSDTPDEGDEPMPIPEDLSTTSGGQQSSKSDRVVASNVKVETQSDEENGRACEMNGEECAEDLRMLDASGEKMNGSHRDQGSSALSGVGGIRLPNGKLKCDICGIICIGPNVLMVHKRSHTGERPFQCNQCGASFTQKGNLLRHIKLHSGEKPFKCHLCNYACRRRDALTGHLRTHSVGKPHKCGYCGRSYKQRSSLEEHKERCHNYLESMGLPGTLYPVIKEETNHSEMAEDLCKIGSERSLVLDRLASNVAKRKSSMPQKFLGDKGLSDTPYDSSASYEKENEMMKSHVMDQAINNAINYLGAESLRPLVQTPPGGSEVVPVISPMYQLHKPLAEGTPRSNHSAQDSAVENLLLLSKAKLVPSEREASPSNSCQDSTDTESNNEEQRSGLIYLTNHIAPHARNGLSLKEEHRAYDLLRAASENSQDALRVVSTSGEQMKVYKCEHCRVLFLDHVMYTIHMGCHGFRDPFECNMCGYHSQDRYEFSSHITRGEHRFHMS
T2 sequence (Q96SW2 whole entry): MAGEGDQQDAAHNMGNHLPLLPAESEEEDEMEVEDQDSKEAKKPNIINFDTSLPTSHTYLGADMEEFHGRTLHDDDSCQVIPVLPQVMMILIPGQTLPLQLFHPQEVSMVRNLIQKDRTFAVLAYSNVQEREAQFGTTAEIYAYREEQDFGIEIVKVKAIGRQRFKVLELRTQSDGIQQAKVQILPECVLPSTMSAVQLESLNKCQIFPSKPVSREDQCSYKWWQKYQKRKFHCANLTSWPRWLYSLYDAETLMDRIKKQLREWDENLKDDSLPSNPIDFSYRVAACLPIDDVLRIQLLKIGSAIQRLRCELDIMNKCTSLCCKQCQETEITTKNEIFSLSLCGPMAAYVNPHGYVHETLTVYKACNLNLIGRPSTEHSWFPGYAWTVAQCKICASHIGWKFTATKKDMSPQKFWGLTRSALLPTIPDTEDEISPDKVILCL
T2 sequence (Q16531 whole entry partner): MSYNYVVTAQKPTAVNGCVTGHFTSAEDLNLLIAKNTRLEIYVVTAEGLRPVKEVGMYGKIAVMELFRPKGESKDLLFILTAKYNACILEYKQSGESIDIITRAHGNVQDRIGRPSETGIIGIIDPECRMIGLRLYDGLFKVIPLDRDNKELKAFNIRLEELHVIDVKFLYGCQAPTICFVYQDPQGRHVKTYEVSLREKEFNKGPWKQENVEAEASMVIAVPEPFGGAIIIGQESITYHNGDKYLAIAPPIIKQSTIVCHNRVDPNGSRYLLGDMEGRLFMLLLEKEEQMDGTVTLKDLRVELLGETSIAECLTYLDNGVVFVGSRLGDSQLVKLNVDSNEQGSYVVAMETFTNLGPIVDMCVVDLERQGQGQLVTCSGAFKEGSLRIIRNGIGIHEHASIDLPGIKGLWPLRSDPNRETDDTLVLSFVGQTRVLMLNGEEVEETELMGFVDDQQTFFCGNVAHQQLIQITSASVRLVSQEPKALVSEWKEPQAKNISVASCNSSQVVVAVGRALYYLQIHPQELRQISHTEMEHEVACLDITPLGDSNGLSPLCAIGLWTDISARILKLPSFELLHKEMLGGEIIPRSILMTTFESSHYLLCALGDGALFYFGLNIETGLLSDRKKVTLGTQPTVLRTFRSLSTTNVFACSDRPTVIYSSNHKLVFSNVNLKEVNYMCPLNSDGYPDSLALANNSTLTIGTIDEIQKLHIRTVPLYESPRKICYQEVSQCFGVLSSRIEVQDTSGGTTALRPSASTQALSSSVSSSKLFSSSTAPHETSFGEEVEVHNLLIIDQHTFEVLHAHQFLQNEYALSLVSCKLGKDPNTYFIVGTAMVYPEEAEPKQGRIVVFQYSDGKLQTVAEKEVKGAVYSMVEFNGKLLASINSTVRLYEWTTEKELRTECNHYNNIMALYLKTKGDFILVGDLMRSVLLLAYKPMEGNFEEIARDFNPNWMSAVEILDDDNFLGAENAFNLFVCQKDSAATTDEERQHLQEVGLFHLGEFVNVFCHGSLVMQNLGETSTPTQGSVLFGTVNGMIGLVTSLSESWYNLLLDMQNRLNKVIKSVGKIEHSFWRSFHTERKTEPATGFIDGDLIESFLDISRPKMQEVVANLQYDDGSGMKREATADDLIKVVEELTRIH
T3 sequence (Q9UKS7 whole entry): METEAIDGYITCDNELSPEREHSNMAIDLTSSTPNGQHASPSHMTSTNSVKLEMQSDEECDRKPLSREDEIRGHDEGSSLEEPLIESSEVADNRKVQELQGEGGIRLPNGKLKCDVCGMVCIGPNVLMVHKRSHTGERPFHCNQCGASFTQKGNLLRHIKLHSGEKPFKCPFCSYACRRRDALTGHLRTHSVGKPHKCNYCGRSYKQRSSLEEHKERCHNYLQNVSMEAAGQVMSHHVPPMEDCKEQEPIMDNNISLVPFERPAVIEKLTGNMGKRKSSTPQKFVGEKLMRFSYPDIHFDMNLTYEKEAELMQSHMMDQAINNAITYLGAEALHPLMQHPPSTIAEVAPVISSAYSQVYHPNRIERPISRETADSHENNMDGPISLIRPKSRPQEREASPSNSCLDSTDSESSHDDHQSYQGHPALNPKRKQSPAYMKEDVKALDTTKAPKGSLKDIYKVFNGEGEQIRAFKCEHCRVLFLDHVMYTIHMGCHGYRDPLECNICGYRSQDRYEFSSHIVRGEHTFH
T3 sequence (Q96SW2 whole entry): as the sequence (Q96SW2 whole entry) above
T3 sequence (Q16531 whole entry partner): as the sequence (Q16531 whole entry partner) above
T5 sequence (P48729 whole entry): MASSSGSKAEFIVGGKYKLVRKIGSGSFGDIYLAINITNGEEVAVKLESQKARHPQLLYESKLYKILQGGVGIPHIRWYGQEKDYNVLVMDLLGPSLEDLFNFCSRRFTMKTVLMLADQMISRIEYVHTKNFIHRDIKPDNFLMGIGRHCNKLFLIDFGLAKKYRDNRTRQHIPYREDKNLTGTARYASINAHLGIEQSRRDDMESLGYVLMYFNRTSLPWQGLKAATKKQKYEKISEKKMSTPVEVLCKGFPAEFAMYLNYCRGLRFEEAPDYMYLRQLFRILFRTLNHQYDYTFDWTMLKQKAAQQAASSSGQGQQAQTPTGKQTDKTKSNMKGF
T5 sequence (Q96SW2 whole entry): as the sequence (Q96SW2 whole entry) above
T5 sequence (Q16531 whole entry partner): as the sequence (Q16531 whole entry partner) above
T6 sequence (P15170 whole entry): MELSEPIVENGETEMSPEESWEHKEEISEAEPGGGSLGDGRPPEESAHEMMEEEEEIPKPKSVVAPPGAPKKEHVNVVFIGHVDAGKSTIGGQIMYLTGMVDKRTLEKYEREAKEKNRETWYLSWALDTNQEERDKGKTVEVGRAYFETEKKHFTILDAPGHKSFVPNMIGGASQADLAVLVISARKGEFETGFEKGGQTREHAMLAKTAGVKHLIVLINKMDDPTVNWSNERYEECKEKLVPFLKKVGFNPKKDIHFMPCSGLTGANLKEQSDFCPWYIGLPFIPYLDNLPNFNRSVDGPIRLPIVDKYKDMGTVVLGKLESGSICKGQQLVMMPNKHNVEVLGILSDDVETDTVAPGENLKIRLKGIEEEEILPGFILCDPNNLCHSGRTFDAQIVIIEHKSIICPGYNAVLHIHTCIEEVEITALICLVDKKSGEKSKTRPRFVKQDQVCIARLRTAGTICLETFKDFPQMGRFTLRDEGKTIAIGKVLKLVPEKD
T6 sequence (Q96SW2 whole entry): as the sequence (Q96SW2 whole entry) above
T6 sequence (Q16531 whole entry partner): as the sequence (Q16531 whole entry partner) above
T4 sequence (Q9UKT9 whole entry): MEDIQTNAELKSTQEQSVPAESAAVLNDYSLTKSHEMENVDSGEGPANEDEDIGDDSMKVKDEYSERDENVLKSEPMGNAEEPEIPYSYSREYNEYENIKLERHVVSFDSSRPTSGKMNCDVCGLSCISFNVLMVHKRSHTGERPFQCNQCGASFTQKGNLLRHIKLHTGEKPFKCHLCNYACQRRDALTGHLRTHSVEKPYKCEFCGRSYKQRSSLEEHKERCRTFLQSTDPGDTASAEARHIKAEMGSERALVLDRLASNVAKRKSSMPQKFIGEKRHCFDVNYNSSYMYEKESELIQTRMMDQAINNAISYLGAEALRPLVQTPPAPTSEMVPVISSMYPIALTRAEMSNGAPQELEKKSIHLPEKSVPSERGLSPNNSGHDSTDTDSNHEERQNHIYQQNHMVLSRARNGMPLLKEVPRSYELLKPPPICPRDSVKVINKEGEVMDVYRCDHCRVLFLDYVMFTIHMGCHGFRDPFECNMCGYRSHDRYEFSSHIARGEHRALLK
T4 sequence (Q96SW2 whole entry): as the sequence (Q96SW2 whole entry) above
T4 sequence (Q16531 whole entry partner): as the sequence (Q16531 whole entry partner) above

Regarding `O=C1CCN(N2Cc3cc(CN4CCc5sccc5C4)ccc3C2=O)C(=O)N1` [GT-07720, 1-(5-((6,7-dihydrothieno[3,2-c]pyridin-5 (4H)-yl)methyl)-1-oxoisoindolin-2-yl)dihydropyrimidine-2,4(1H,3H)-dione], the “WEE1 substrate protein remaining %” value on WEE1 is recorded as “A (0% ≤ substrate protein remaining % ≤80%)”. The “IKZF1 substrate protein remaining %” value on IKZF1 was “A (0% ≤ substrate protein remaining % ≤80%)”. The “IKZF2 substrate protein remaining %” value on IKZF2 is “A (0% ≤ substrate protein remaining % ≤80%)”. Also, at IKZF3, the “IKZF3 substrate protein remaining %” value is on record as “A (0% ≤ substrate protein remaining % ≤80%)”. Moreover, at CK1α, the “CK1α substrate protein remaining %” value is reported as “A (0% ≤ substrate protein remaining % ≤80%)”. The “GSPT1 substrate protein remaining %” value on GSPT1 is recorded as “A (0% ≤ substrate protein remaining % ≤80%)”.

Turning to `O=C1CCN(N2Cc3cc(CN4CCN(Cc5ccc(C67CC8CC(CC(C8)C6)C7)cc5)CC4)ccc3C2=O)C(=O)N1` [GT-07721, 1-(5-((4-(4-((3r,5r,7r)-adamantan-1-yl)benzyl)piperazin-1-yl)methyl)-1-oxoisoindolin-2-yl)dihydropyrimidine-2,4(1H,3H)-dione], the “WEE1 substrate protein remaining %” value on WEE1 is “A (0% ≤ substrate protein remaining % ≤80%)”. For the same compound, the “IKZF1 substrate protein remaining %” value on IKZF1 is on record as “A (0% ≤ substrate protein remaining % ≤80%)”. Moreover, the “IKZF2 substrate protein remaining %” value at IKZF2 is reported as “A (0% ≤ substrate protein remaining % ≤80%)”. The “IKZF3 substrate protein remaining %” value on IKZF3 is listed as “A (0% ≤ substrate protein remaining % ≤80%)”. Further, the “CK1α substrate protein remaining %” value on CK1α was “A (0% ≤ substrate protein remaining % ≤80%)”. On GSPT1, the “GSPT1 substrate protein remaining %” value was “A (0% ≤ substrate protein remaining % ≤80%)”.

For `O=C1CCN(N2C(=O)c3ccc(CN4CCN(Cc5ccc(C67CC8CC(CC(C8)C6)C7)cc5)CC4)cc3C2=O)C(=O)N1` [GT-07722, 5-((4-(4-((3r,5r,7r)-adamantan-1-yl)benzyl)piperazin-1-yl)methyl)-2-(2,4-dioxotetrahydropyrimidin-1(2H)-yl)isoindoline-1,3-dione], the “WEE1 substrate protein remaining %” value at WEE1 was “A (0% ≤ substrate protein remaining % ≤80%)”. Further, at IKZF1, the “IKZF1 substrate protein remaining %” value was “B (80%< substrate protein remaining % ≤100%)”. Further, the “IKZF2 substrate protein remaining %” value on IKZF2 is “A (0% ≤ substrate protein remaining % ≤80%)”. The “IKZF3 substrate protein remaining %” value at IKZF3 was “A (0% ≤ substrate protein remaining % ≤80%)”. The “CK1α substrate protein remaining %” value on CK1α is “A (0% ≤ substrate protein remaining % ≤80%)”. Also, the “GSPT1 substrate protein remaining %” value on GSPT1 is “A (0% ≤ substrate protein remaining % ≤80%)”.

As to `O=C1CCN(N2Cc3cc(CNC45CC6CC(CC(O)(C6)C4)C5)ccc3C2=O)C(=O)N1` [GT-07784, 1-(5-((((1r,3s,5R,7S)-3-hydroxyadamantan-1-yl)amino)methyl)-1-oxoisoindolin-2-yl)dihydropyrimidine-2,4(1H,3H)-dione], the “WEE1 substrate protein remaining %” value on WEE1 is “B (80%< substrate protein remaining % ≤100%)”. Further, the “IKZF1 substrate protein remaining %” value on IKZF1 is on record as “B (80%< substrate protein remaining % ≤100%)”. The “IKZF2 substrate protein remaining %” value at IKZF2 is on record as “A (0% ≤ substrate protein remaining % ≤80%)”. Besides, the “IKZF3 substrate protein remaining %” value at IKZF3 is “B (80%< substrate protein remaining % ≤100%)”. For the same compound, the “CK1α substrate protein remaining %” value at CK1α is on record as “B (80%< substrate protein remaining % ≤100%)”. Besides, at GSPT1, the “GSPT1 substrate protein remaining %” value is reported as “B (80%< substrate protein remaining % ≤100%)”.

As for `O=C1CCN(N2C(=O)c3ccc(CNC45CC6CC(CC(O)(C6)C4)C5)cc3C2=O)C(=O)N1` [GT-07786, 2-(2,4-dioxotetrahydropyrimidin-1(2H)-yl)-5-((((1r,3s,5R,7S)-3-hydroxyadamantan-1-yl)amino)methyl)isoindoline-1,3-dione], the “WEE1 substrate protein remaining %” value on WEE1 is recorded as “B (80%< substrate protein remaining % ≤100%)”. Also, on IKZF1, the “IKZF1 substrate protein remaining %” value was “B (80%< substrate protein remaining % ≤100%)”. Further, the “IKZF2 substrate protein remaining %” value on IKZF2 is recorded as “B (80%< substrate protein remaining % ≤100%)”. Moreover, the “IKZF3 substrate protein remaining %” value at IKZF3 is listed as “B (80%< substrate protein remaining % ≤100%)”. For the same compound, the “CK1α substrate protein remaining %” value at CK1α is “B (80%< substrate protein remaining % ≤100%)”. Besides, on GSPT1, the “GSPT1 substrate protein remaining %” value is given as “A (0% ≤ substrate protein remaining % ≤80%)”.

As for `NCc1ccc2c(c1)C(=O)N(N1CCC(=O)NC1=O)C2=O` [GT-07968, 5-(aminomethyl)-2-(2,4-dioxotetrahydropyrimidin-1(2H)-yl)isoindoline-1,3-dione], the “WEE1 substrate protein remaining %” value at WEE1 is on record as “A (0% ≤ substrate protein remaining % ≤80%)”. Further, the “IKZF1 substrate protein remaining %” value on IKZF1 is “A (0% ≤ substrate protein remaining % ≤80%)”. Further, at IKZF2, the “IKZF2 substrate protein remaining %” value is listed as “A (0% ≤ substrate protein remaining % ≤80%)”. Moreover, the “IKZF3 substrate protein remaining %” value at IKZF3 is given as “A (0% ≤ substrate protein remaining % ≤80%)”. In addition, the “CK1α substrate protein remaining %” value on CK1α is on record as “A (0% ≤ substrate protein remaining % ≤80%)”. For the same compound, the “GSPT1 substrate protein remaining %” value on GSPT1 is reported as “B (80%< substrate protein remaining % ≤100%)”.

Regarding `O=C1CCN(N2Cc3cc(CN4CC=C(c5cccc(Cl)c5Cl)CC4)ccc3C2=O)C(=O)N1` [GT-08054, 1-(5-((4-(2,3-dichlorophenyl)-3,6-dihydropyridin-1(2H)-yl)methyl)-1-oxoisoindolin-2-yl)dihydropyrimidine-2,4(1H,3H)-dione], the “WEE1 substrate protein remaining %” value at WEE1 is on record as “A (0% ≤ substrate protein remaining % ≤80%)”. For the same compound, the “IKZF1 substrate protein remaining %” value on IKZF1 is “A (0% ≤ substrate protein remaining % ≤80%)”. Moreover, the “IKZF2 substrate protein remaining %” value at IKZF2 is “A (0% ≤ substrate protein remaining % ≤80%)”. For the same compound, the “IKZF3 substrate protein remaining %” value on IKZF3 is given as “A (0% ≤ substrate protein remaining % ≤80%)”. The “CK1α substrate protein remaining %” value at CK1α is on record as “A (0% ≤ substrate protein remaining % ≤80%)”. Moreover, the “GSPT1 substrate protein remaining %” value on GSPT1 is “A (0% ≤ substrate protein remaining % ≤80%)”.

Turning to `O=C1CCN(N2Cc3cc(CN4CC=C(c5cccc(F)c5Cl)CC4)ccc3C2=O)C(=O)N1` [GT-08055, 1-(5-((4-(2-chloro-3-fluorophenyl)-3,6-dihydropyridin-1(2H)-yl)methyl)-1-oxoisoindolin-2-yl)dihydropyrimidine-2,4(1H,3H)-dione], the “WEE1 substrate protein remaining %” value on WEE1 is reported as “A (0% ≤ substrate protein remaining % ≤80%)”. Moreover, the “IKZF1 substrate protein remaining %” value at IKZF1 is given as “A (0% ≤ substrate protein remaining % ≤80%)”. In addition, at IKZF2, the “IKZF2 substrate protein remaining %” value is “A (0% ≤ substrate protein remaining % ≤80%)”. For the same compound, the “IKZF3 substrate protein remaining %” value at IKZF3 was “A (0% ≤ substrate protein remaining % ≤80%)”. The “CK1α substrate protein remaining %” value on CK1α is on record as “A (0% ≤ substrate protein remaining % ≤80%)”. The “GSPT1 substrate protein remaining %” value at GSPT1 is listed as “A (0% ≤ substrate protein remaining % ≤80%)”.

As for `O=C1CCN(N2Cc3cc(CN4CCN(c5ncnc6sccc56)CC4)ccc3C2=O)C(=O)N1` [GT-08057, 1-(1-oxo-5-((4-(thieno[2,3-d]pyrimidin-4-yl)piperazin-1-yl)methyl)isoindolin-2-yl)dihydropyrimidine-2,4(1H,3H)-dione], the “WEE1 substrate protein remaining %” value on WEE1 is reported as “B (80%< substrate protein remaining % ≤100%)”. Moreover, the “IKZF1 substrate protein remaining %” value at IKZF1 was “A (0% ≤ substrate protein remaining % ≤80%)”. Further, the “IKZF2 substrate protein remaining %” value at IKZF2 is reported as “B (80%< substrate protein remaining % ≤100%)”. The “IKZF3 substrate protein remaining %” value on IKZF3 was “B (80%< substrate protein remaining % ≤100%)”. The “CK1α substrate protein remaining %” value at CK1α is “B (80%< substrate protein remaining % ≤100%)”. Moreover, the “GSPT1 substrate protein remaining %” value on GSPT1 is “A (0% ≤ substrate protein remaining % ≤80%)”.

As to `Cc1csc2ncnc(N3CCN(Cc4ccc5c(c4)CN(N4CCC(=O)NC4=O)C5=O)CC3)c12` [GT-08058, 1-(5-((4-(5-methylthieno[2,3-d]pyrimidin-4-yl)piperazin-1-yl)methyl)-1-oxoisoindolin-2-yl)dihydropyrimidine-2,4(1H,3H)-dione], the “WEE1 substrate protein remaining %” value at WEE1 is “B (80%< substrate protein remaining % ≤100%)”. The “IKZF1 substrate protein remaining %” value at IKZF1 is recorded as “A (0% ≤ substrate protein remaining % ≤80%)”. The “IKZF2 substrate protein remaining %” value at IKZF2 is reported as “B (80%< substrate protein remaining % ≤100%)”. On IKZF3, the “IKZF3 substrate protein remaining %” value was “B (80%< substrate protein remaining % ≤100%)”. For the same compound, the “CK1α substrate protein remaining %” value on CK1α is given as “B (80%< substrate protein remaining % ≤100%)”. Besides, the “GSPT1 substrate protein remaining %” value at GSPT1 is “B (80%< substrate protein remaining % ≤100%)”.

For the compound `Cc1cc2c(N3CCN(Cc4ccc5c(c4)CN(N4CCC(=O)NC4=O)C5=O)CC3)ncnc2s1` [GT-08059, 1-(5-((4-(6-methylthieno[2,3-d]pyrimidin-4-yl)piperazin-1-yl)methyl)-1-oxoisoindolin-2-yl)dihydropyrimidine-2,4(1H,3H)-dione], the “WEE1 substrate protein remaining %” value at WEE1 is “B (80%< substrate protein remaining % ≤100%)”. For the same compound, the “IKZF1 substrate protein remaining %” value on IKZF1 is listed as “B (80%< substrate protein remaining % ≤100%)”. Besides, on IKZF2, the “IKZF2 substrate protein remaining %” value is recorded as “B (80%< substrate protein remaining % ≤100%)”. Besides, at IKZF3, the “IKZF3 substrate protein remaining %” value is recorded as “A (0% ≤ substrate protein remaining % ≤80%)”. The “CK1α substrate protein remaining %” value on CK1α is recorded as “B (80%< substrate protein remaining % ≤100%)”. For the same compound, at GSPT1, the “GSPT1 substrate protein remaining %” value is recorded as “B (80%< substrate protein remaining % ≤100%)”.
